{"source": "patent US20230121313A1", "about": "(priority 2019, published 2023)", "experiment": "Solubility of esketamine HCl", "settings": "for solubility: pH 4.5, aqueous buffer", "description": "The clinical investigational product is an aqueous solution of the drug substance, esketamine hydrochloride (HCl). This formulation is administered intranasally to patients using a dual nasal spray device, which delivers one spray into each nostril. […] The formulation was stored at 37° C. for stability reasons until dosing.", "note": "Structures can show the parent of a compound that is named as a salt."}
{"smiles": "CN[C@]1(c2ccccc2Cl)CCCCC1=O", "note": "[esketamine HCl, (S)-2-(2-chlorophenyl)-2-(methylamino)cyclohexanone hydrochloride]", "values": [{"measurement": "solubility", "setting": "aqueous solution", "result": 207, "unit": "mg/mL"}, {"measurement": "Maximum solubility expressed as esketamine base", "setting": "room temperature, pH 4.5, factor 1.15", "result": 180, "unit": "mg esketamine base/mL"}, {"measurement": "solubility", "setting": "water", "result": 180, "unit": "mg/mL"}]}
